Test results published in US11780830B2, “Triazolone derivatives or salts thereof and pharmaceutical compositions comprising the same” (YUHAN CORPORATION, priority 2018, dated 2023).
Where a name gives a salt, the structure may show the parent alone.

Columns and labels:
Assay type in all cases: biochemical
recombinant human VAP-1 = molecular target: T1, recombinant human VAP-1 (Homo sapiens, UniProt Q16853); experiment: Activity on recombinant human VAP-1, HRP-coupled Amplex Red hydrogen peroxide assay; conditions: substrate 1 mM benzylamine; compound incubated with enzyme at 37° C. for 30 minutes; pH 7.4; read-out: Inhibitory Activity (IC50, nM) human VAP-1
T1 construct: purchased R&D systems
T1 sequence (Q16853 1-763): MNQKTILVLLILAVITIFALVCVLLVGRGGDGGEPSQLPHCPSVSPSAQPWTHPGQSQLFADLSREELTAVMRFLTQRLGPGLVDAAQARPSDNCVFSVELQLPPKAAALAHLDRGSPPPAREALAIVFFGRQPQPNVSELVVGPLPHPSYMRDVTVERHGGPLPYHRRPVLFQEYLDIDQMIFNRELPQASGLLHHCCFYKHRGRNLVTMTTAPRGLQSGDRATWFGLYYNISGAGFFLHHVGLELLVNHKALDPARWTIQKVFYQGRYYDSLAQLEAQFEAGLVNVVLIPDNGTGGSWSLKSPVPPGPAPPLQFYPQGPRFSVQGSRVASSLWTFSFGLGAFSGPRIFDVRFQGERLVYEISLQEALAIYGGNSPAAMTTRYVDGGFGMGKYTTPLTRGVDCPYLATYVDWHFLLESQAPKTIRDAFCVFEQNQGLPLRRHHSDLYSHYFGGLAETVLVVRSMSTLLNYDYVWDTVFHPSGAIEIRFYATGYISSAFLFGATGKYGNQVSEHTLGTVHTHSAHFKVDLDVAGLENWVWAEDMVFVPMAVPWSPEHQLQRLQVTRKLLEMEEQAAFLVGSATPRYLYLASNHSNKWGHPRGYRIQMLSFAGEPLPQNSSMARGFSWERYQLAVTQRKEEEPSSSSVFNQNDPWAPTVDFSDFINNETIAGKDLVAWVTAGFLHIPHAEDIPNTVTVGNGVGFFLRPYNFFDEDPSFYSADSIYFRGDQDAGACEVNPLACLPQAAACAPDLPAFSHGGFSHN
Protocol: (§1) The compounds according to the present technology were evaluated in terms of activity on recombinant human VAP-1 (R&D systems) by measuring the level of hydrogen peroxide in horseradish peroxidase (HRP)-coupled reaction using Amplex Red Hydrogen Peroxide Assay Kit (Molecular Probes, Invitrogen, USA). The experiment was carried out at room temperature using benzylamine as a substrate. In the HRP-coupled reaction, hydrogen peroxide oxidation of 10-acetyl-3,7-dihydroxyphenoxazine (Amplex Red reagent) produces resorufin, which is a highly fluorescent compound. Briefly, the test compound was dissolved in dimethyl sulfoxide (DMSO) at a concentration of 20 mM. The dose-response assessment was made by 1:3 serial dilution in DMSO, thereby creating an 8 point curve. The concentration of the upper part was controlled according to the efficacy of the compounds, followed by dilution with a reaction buffer solution to obtain a final DMSO concentration less than 1%. To each well of a 96 black well plate, human VAP-1 purified in 50 mM sodium phosphate buffer solution (pH7.4) was added. The test compounds dissolved in DMSO were incubated with the human VAP-1 enzymes at 37° C. for 30 minutes. After 30-minute incubation, each well is added with a reaction mixture containing 200 uM Amplex Red reagent prepared from 50 mM sodium phosphate buffer solution (pH 7.4), 1 mM benzylamine, and 1 U/mL HRP. Fluorescence intensity was measured at several time points during 1-2 hours using a microplate reader (Flexstation3, Molecular Devices) under the wavelength condition exciting at 544 nm and reading the emission at 590 nm. The inhibitory effect of the compounds was measured as a decrease (%) in the signal rate as compared to the control group without any inhibitor (only diluted DMSO). Data was fixed to a logistic model with four variables and IC50 value was calculated using GraphPad Prism program.

[1] = molecular target: T2, recombinant human MAO-A (monoamine oxidase-A) (Homo sapiens, UniProt P21397); experiment: Activity on recombinant human MAO-A, method similar to the VAP-1 assay; conditions: substrate 0.5 mM tyramine; read-out: Inhibitory Activity (IC50, nM) MAO-A
T2 construct: purchased Sigma-Aldrich
T2 sequence (P21397 1-527): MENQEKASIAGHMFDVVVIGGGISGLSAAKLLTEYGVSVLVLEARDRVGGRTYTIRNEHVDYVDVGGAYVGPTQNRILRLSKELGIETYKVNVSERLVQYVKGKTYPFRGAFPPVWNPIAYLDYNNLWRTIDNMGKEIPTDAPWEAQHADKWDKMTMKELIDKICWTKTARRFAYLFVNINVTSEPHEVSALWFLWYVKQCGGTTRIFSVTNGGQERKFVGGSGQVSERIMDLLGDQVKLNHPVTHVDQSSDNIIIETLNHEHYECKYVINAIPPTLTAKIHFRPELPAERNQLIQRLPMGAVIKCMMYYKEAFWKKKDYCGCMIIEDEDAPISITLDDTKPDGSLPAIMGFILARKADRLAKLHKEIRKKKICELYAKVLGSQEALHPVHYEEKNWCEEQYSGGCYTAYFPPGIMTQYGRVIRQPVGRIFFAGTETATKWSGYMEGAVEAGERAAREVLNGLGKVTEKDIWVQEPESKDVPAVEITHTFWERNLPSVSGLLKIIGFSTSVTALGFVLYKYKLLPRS
Protocol: as §1
(§2) In addition, the compounds according to the present technology were evaluated in terms of activity on a recombinant human MAO-A (monoamine oxidase-A, Sigma-Aldrich) and a recombinant human MAO-B (monoamine oxidase-B, Sigma-Aldrich) by using as substrates, 0.5 mM tyramine and 1 mM benzylamine, respectively, with a method similar to the activity evaluation method for recombinant human VAP-1. The compounds according to the present technology were also evaluated in terms of activity on a recombinant human DAO (diamine oxidase, R&D systems) by using as a substrate 1 mM putrescine with a method similar to the activity evaluation method for recombinant human VAP-1.

[2] = molecular target: T3, recombinant human DAO (diamine oxidase) (Homo sapiens, UniProt P19801); experiment: Activity on recombinant human DAO, method similar to the VAP-1 assay; conditions: substrate 1 mM putrescine; read-out: Inhibitory Activity (IC50, nM) DAO
T3 construct: purchased R&D systems
T3 sequence (P19801 20-751): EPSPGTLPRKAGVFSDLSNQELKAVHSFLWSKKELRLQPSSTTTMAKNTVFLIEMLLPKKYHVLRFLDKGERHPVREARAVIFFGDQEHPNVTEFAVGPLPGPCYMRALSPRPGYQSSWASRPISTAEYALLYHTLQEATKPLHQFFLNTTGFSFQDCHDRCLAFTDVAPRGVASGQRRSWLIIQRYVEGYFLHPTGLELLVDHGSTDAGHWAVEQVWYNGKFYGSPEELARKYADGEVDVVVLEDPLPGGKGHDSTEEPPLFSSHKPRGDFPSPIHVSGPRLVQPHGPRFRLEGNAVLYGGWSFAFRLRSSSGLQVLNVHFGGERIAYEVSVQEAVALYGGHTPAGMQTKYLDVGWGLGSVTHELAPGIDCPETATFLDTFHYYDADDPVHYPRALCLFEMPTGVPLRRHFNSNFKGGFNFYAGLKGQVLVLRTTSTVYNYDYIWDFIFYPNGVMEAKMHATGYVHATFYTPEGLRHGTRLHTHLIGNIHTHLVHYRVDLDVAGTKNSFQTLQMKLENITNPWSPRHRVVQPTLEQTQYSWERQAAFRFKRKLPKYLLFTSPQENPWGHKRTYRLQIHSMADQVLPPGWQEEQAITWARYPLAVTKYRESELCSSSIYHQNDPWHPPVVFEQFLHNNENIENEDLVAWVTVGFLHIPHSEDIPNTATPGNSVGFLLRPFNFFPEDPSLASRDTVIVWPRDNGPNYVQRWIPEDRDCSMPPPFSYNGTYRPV
Protocol: as §1, §2

IC50 (recombinant human VAP-1) [nM]	IC50 [1] [nM]	IC50 [2] [nM]	Compound
0.97			NC/C(=C/F)Cn1ncn(Cc2ccc(-c3ccc(-c4nnc[nH]4)cc3)s2)c1=O [Example 30, 2-[(2Z)-2-(aminomethyl)-3-fluoroprop-2-en-1-yl]-4-(5-[4-(4H-1,2,4-triazol-3-yl)phenyl]thiophen-2-ylmethyl)-2,4-dihydro-3H-1,2,4-triazol-3-one]
1.3			CC(=O)Nc1cc(-c2ccc(Cn3cnn(C/C(=C\F)CN)c3=O)s2)ccn1 [Example 41, N-4-[5-(1-[(2Z)-2-(aminomethyl)-3-fluoroprop-2-en-1-yl]-5-oxo-1,5-dihydro-4H-1,2,4-triazol-4-ylmethyl)thiophen-2-yl]pyridin-2-ylacetamide hydrochloride]
2.6	> 100000	380	COCCNc1ncc(-c2ccc(Cn3cnn(C/C(=C/F)CN)c3=O)s2)cn1 [Example 53, 2-[(2E)-2-(aminomethyl)-3-fluoroprop-2-en-1-yl]-4-[(5-2-[(2-methoxyethyl)amino]pyrimidin-5-ylthiophen-2-yl)methyl]-2,4-dihydro-3H-1,2,4-triazol-3-one hydrochloride]
1.7	> 10000	110	N#Cc1ncc(-c2ccc(Cn3cnn(C/C(=C/F)CN)c3=O)s2)cn1 [Example 54, 5-[5-(1-[(2E)-2-(aminomethyl)-3-fluoroprop-2-en-1-yl]-5-oxo-1,5-dihydro-4H-1,2,4-triazol-4-ylmethyl)thiophen-2-yl]pyrimidine-2-carbonitrile hydrochloride]
2.7			Cc1cc(-c2ccc(Cn3cnn(C/C(=C\F)CN)c3=O)s2)cc2c1NC(=O)CC2 [Example 76, 6-[5-(1-[(2Z)-2-(aminomethyl)-3-fluoroprop-2-en-1-yl]-5-oxo-1,5-dihydro-4H-1,2,4-triazol-4-ylmethyl)thiophen-2-yl]-8-methyl-3,4-dihydroquinolin-2(1H)-one hydrochloride]
1	> 100000	680	NC/C(=C\F)Cn1ncn(Cc2ccc(/C=C/c3cnc4[nH]c(=O)oc4c3)s2)c1=O [Example 122, 6-[(E)-2-[5-[[1-[(E)-2-(aminomethyl)-3-fluoro-allyl]-5-oxo-1,2,4-triazol-4-yl]methyl]-2-thienyl]vinyl]-3H-oxazolo[4,5-b]pyridin-2-one hydrochloride]

Second part, the molecule before the results:

Compound	IC50 (recombinant human VAP-1) [nM]	IC50 [1] [nM]	IC50 [2] [nM]
NC/C(=C/F)Cn1ncn(Cc2ccc(-c3ccc(C(=O)N4CCOCC4)cc3)s2)c1=O [Example 26, 2-[(2Z)-2-(aminomethyl)-3-fluoroprop-2-en-1-yl]-4-(5-[4-(morpholin-4-ylcarbonyl)phenyl]thiophen-2-ylmethyl)-2,4-dihydro-3H-1,2,4-triazol-3-one hydrochloride]	1.4		
NC/C(=C/F)Cn1ncn(Cc2ccc(-c3cccc(-c4nnc[nH]4)c3)s2)c1=O [Example 32, 2-[(2Z)-2-(aminomethyl)-3-fluoroprop-2-en-1-yl]-4-(5-[3-(4H-1,2,4-triazol-3-yl)phenyl]thiophen-2-ylmethyl)-2,4-dihydro-3H-1,2,4-triazol-3-one]	1.2		
COc1ccc(-c2ccc(Cn3cnn(C/C(=C\F)CN)c3=O)s2)cn1 [Example 44, 2-[(2Z)-2-(aminomethyl)-3-fluoroprop-2-en-1-yl]-4-[5-(6-methoxypyridin-3-yl)thiophen-2-yl]methyl-2,4-dihydro-3H-1,2,4-triazol-3-one hydrochloride]	1.9		
NC/C(=C/F)Cn1ncn(Cc2ccc(-c3ccc(C(F)(F)F)nc3)s2)c1=O [Example 48, 2-[(2Z)-2-(aminomethyl)-3-fluoroprop-2-en-1-yl]-4-(5-[6-(trifluoromethyl)pyridin-3-yl]thiophen-2-ylmethyl)-2,4-dihydro-3H-1,2,4-triazol-3-one hydrochloride]	1.6		
NC/C(=C/F)Cn1ncn(Cc2ccc(-c3ccc(N4CCOCC4)nc3)s2)c1=O [Example 51, 2-[(2Z)-2-(aminomethyl)-3-fluoroprop-2-en-1-yl]-4-(5-[6-(morpholin-4-yl)pyridin-3-yl]thiophen-2-ylmethyl)-2,4-dihydro-3H-1,2,4-triazol-3-one hydrochloride]	0.75		
NC/C(=C/F)Cn1ncn(Cc2ccc(-c3ccc4c(c3)NC(=O)CO4)s2)c1=O [Example 89, 6-[5-(1-[(2Z)-2-(aminomethyl)-3-fluoroprop-2-en-1-yl]-5-oxo-1,5-dihydro-4H-1,2,4-triazol-4-ylmethyl)thiophen-2-yl]-2H-1,4-benzoxazin-3(4H)-one hydrochloride]	1.9		
NC/C(=C/F)Cn1ncn(Cc2ccc(-c3ccc4c(c3)NC(=O)OC4)s2)c1=O [Example 99, 7-[5-(1-[(2Z)-2-(aminomethyl)-3-fluoroprop-2-en-1-yl]-5-oxo-1,5-dihydro-4H-1,2,4-triazol-4-ylmethyl)thiophen-2-yl]-1,4-dihydro-2H-3,1-benzoxazin-2-one hydrochloride]	1.2		
NC/C(=C/F)Cn1ncn(CCc2cccs2)c1=O [Example 140, 2-[(2Z)-2-(aminomethyl)-3-fluoroprop-2-en-1-yl]-4-[2-(thiophen-2-yl)ethyl]-2,4-dihydro-3H-1,2,4-triazol-3-one]	31		
